Data from ChEMBL document CHEMBL1153129, “Multiple bond-conjugated photoinduced nitric oxide releaser working with two-photon excitation” (Bioorg Med Chem Lett, 2010).

What was measured:
[1] = Induction of NO release per molar ratio of compound at 250 uM irradiated with 400 to 440 nm light in presence of Fe-DETC complex by ESR spectrometry; assay type: physicochemical
[2] = Induction of NO release per molar ratio of compound at 250 uM irradiated with 450 to 480 nm light in presence of Fe-DETC complex by ESR spectrometry; assay type: physicochemical

Row | Activity [1] [%] | Activity [2] [%] | Compound
1 | 9.2 | – | COc1cc(/C=C/c2cc(C)c([N+](=O)[O-])c(C)c2)c(OC)cc1C#Cc1cc(OC)c(/C=C/c2cc(C)c([N+](=O)[O-])c(C)c2)cc1OC
2 | 1 | 0.86 | COc1cc(/C=C/c2cc(OC)c(/C=C/c3cc(C)c([N+](=O)[O-])c(C)c3)cc2OC)c(OC)cc1/C=C/c1cc(C)c([N+](=O)[O-])c(C)c1
3 | 9.7 | – | COc1cc(/C=C/c2cc(C)c([N+](=O)[O-])c(C)c2)c(OC)cc1C#CC#Cc1cc(OC)c(/C=C/c2cc(C)c([N+](=O)[O-])c(C)c2)cc1OC
4 | 0.96 | 0.54 | COc1cc(/C=C/c2cc(C)c([N+](=O)[O-])c(C)c2)c(OC)cc1/C=C/C=C/c1cc(OC)c(/C=C/c2cc(C)c([N+](=O)[O-])c(C)c2)cc1OC
